Reference: ChEMBL document CHEMBL6071176, “Development of Phloroglucinol-Linked Tris-Quaternary Ammonium Salt Antimicrobial Peptide Mimics with Low Cytotoxicity and Broad-Spectrum Antibacterial Activity” (J Med Chem, 2024)
Calls of active or inactive are those of the source. No cut-off for these calls is given here. *1 amine or outer side, *2 acyl side, *3 side chain or, on linkers, in order; H or OH if unused. Where a SMILES comes first, the peptide text is derived from it. Bridges are numbered along the chain shown (N, C = ends). Side-chain parts run from the residue outwards. [ ]: non-standard residue; d: D form. The star is where a group is joined. X1 = C[C@@H](O)[C@H](CN([C@@H](CCN)C(=O)[*:2])[*:1])N[*:3]; Octanoyl(6-Me) = CCC(C)CCCCC(=O)*; Dab = NCC[C@H](N)C(=O)O

Key:
Staphylococcus aureus [1] = test: Antimicrobial activity against Staphylococcus aureus assessed as inhibition of growth incubated for 18 hrs by CLSI guidelines based assay; assay type: functional
Enterococcus faecalis = test: Antimicrobial activity against Enterococcus faecalis assessed as inhibition of growth incubated for 18 hrs by CLSI guidelines based assay; assay type: functional
Escherichia coli [2] = test: Antimicrobial activity against Escherichia coli assessed as inhibition of growth incubated for 18 hrs by CLSI guidelines based assay; assay type: functional
[3] = system: Stenotrophomonas maltophilia; test: Antimicrobial activity against Stenotrophomonas maltophilia assessed as inhibition of growth incubated for 18 hrs by CLSI guidelines based assay; assay type: functional
[4] = Hemolytic activity in sheep red blood cells measured after 1 hr incubation; assay type: toxicity, cell-based, Ovis aries, Erythrocyte
[5] = Selectivity index, ratio of HC50 for sheep red blood cells to MIC for Staphylococcus aureus; assay type: toxicity, cell-based, RBC; conditions: read-out: Selectivity Index
[6] = Cytotoxicity against human Gastric mucosal cells measured after 24 hrs by CCK-8 assay; assay type: toxicity, cell-based, Gastric mucosal cell
Staphylococcus aureus [7] = test: Antibacterial activity against methicillin-resistant Staphylococcus aureus; assay type: functional
[8] = Selectivity index, ratio of HC50 for human erythrocytes to MIC for methicillin-resistant Staphylococcus aureus; assay type: toxicity, cell-based, RBC; conditions: read-out: Selectivity Index
Cell membrane = test: Induction of Cytoplasmic membrane depolarization in Staphylococcus aureus assessed as increase in fluorescence intensity measured at 6 times of MIC measured after 4 hrs by DiSC3(5) dye-based fluorescence assay; assay type: subcellular
Staphylococcus aureus [9] = test: Resistance development in Staphylococcus aureus assessed as increase in MIC measured after 20 passages of continues culture; assay type: functional
Staphylococcus aureus [10] = test: Antibacterial activity against Staphylococcus aureus; assay type: functional
[11] = Hemolytic activity in red blood cells (unknown origin); assay type: toxicity, cell-based, Erythrocyte
[12] = Selectivity index, ratio of HC50 for RBC (unknown origin) to MIC for Staphylococcus aureus; assay type: toxicity, cell-based; conditions: red blood cells; read-out: Selectivity Index
Escherichia coli [13] = test: Bactericidal activity against early exponential phase Escherichia coli assessed as bacterial killing at 6 ug/ml incubated for 6 hrs by time-kill assay; assay type: functional, organism-based; conditions: dose 6.0 µg/ml
Escherichia coli [14] = test: Bactericidal activity against early exponential phase Escherichia coli assessed as bacterial killing at 6 ug/ml incubated for 12 hrs by time-kill assay; assay type: functional, organism-based; conditions: dose 6.0 µg/ml
Escherichia coli [15] = test: Bactericidal activity against late exponential phase Escherichia coli assessed as bacterial killing by measuring bacterial count at 8 ug/ml incubated for 12 hrs by time-kill assay (reference value: 10^8.4 CFU/ml); assay type: functional; conditions: dose 8 µg/ml
Staphylococcus aureus [16] = test: Antibacterial activity against methicillin-resistant Staphylococcus aureus assessed as inhibition of bacterial growth incubated for 18 hrs by CLSI guidelines based assay; assay type: functional
Staphylococcus aureus [17] = test: Antibacterial activity against NDM-1 gene-resistant Staphylococcus aureus assessed as inhibition of bacterial growth incubated for 18 hrs by CLSI guidelines based assay; assay type: functional

`CCCCCCCC[N+](C)(C)CCCCCOc1cc(OCCCCC[N+](C)(C)CCCCCCCC)cc(OCCCCC[N+](C)(C)CCCCCCCC)c1.[Br-].[Br-].[Br-]` gave an MIC (Staphylococcus aureus [1]) of 0.5 µg/mL, an MIC (Enterococcus faecalis) of 2 µg/mL and an MIC (Escherichia coli [2]) of 4 µg/mL. It also gave an MIC [3] of 2 µg/mL, an HC50 at 1 h [4] of 711 µg/mL and a selectivity ratio [5] of 1420. The CC50 at 24 h [6] was < 30 µg/mL.
For `CCCCCCN(Cc1ccc(-c2ccc(CN(CCCCCC)C(=O)[C@@H](N)CCCCN)cc2)cc1)C(=O)[C@@H](N)CCCCN.O=C(O)C(F)(F)F.O=C(O)C(F)(F)F.O=C(O)C(F)(F)F.O=C(O)C(F)(F)F`, the MIC (Staphylococcus aureus [7]) was 3.1 µg/mL and the selectivity ratio [8] was 74.2.
In the case of `CC[C@H](C)[C@H](NC(=O)CN)C(=O)NCC(=O)N[C@@H](C)C(=O)N[C@H](C(=O)N[C@@H](CC(C)C)C(=O)N[C@@H](CCCCN)C(=O)N[C@H](C(=O)N[C@@H](CC(C)C)C(=O)N[C@H](C(=O)N[C@H](C(=O)NCC(=O)N[C@@H](CC(C)C)C(=O)N1CCC[C@H]1C(=O)N[C@@H](C)C(=O)N[C@@H](CC(C)C)C(=O)N[C@H](C(=O)N[C@@H](CO)C(=O)N[C@@H](Cc1c[nH]c2ccccc12)C(=O)N[C@H](C(=O)N[C@@H](CCCCN)C(=O)N[C@@H](CCCNC(=N)N)C(=O)N[C@@H](CCCCN)C(=O)N[C@@H](CCCNC(=N)N)C(=O)N[C@@H](CCC(N)=O)C(=O)N[C@@H](CCC(N)=O)C(N)=O)[C@@H](C)CC)[C@@H](C)CC)[C@@H](C)O)[C@@H](C)O)C(C)C)C(C)C`, the Activity (Cell membrane) is reported as “Active”.
Work on `CC(C)CCCCC(=O)N[C@@H](CCN)C(=O)N[C@@H](CN[C@@H](CCN)C(=O)N[C@H]1CCNC(=O)[C@H]([C@@H](C)O)NC(=O)[C@H](CCN)NC(=O)[C@H](CCN)NC(=O)[C@H](CC(C)C)NC(=O)[C@@H](CC(C)C)NC(=O)[C@H](CCN)NC1=O)[C@@H](C)O.CCC(C)CCCCC(=O)N[C@@H](CCN)C(=O)N[C@@H](CN[C@@H](CCN)C(=O)N[C@H]1CCNC(=O)[C@H]([C@@H](C)O)NC(=O)[C@H](CCN)NC(=O)[C@H](CCN)NC(=O)[C@H](CC(C)C)NC(=O)[C@@H](CC(C)C)NC(=O)[C@H](CCN)NC1=O)[C@@H](C)O` (stereo partly drawn) (H-[X1]([Dab-Octanoyl(6-Me)])[Dab][Dab][dL]L[Dab][Dab]T; lactam 2-C) yielded an MIC (Staphylococcus aureus [9]) of 4 µg/mL.
`C[N+](C)(CCCCCOc1ccccc1)CCCCCOc1cc(OCCCCC[N+](C)(C)CCCCCOc2ccccc2)cc(OCCCCC[N+](C)(C)CCCCCOc2ccccc2)c1.[Br-].[Br-].[Br-]` showed an MIC (Staphylococcus aureus [1]) of 1 µg/mL, an MIC (Enterococcus faecalis) of 2 µg/mL and an MIC (Escherichia coli [2]) of 1 µg/mL. The MIC [3] was 2 µg/mL, the HC50 at 1 h [4] was > 1280 µg/mL and the selectivity ratio [5] was > 1280. For the same compound, the CC50 at 24 h [6] was < 30 µg/mL.
Work on `CCCCCCNC(=O)C[N+](C)(C)CCCCCCCCCCCC[N+](C)(C)CC(=O)NCCCCCC.[Br-].[Br-]` yielded an MIC (Staphylococcus aureus [10]) of 1 µg/mL, an HC50 [11] of 805 µg/mL and a selectivity ratio [12] of 805. For the same compound, the MIC (Staphylococcus aureus [1]) was 1 µg/mL, the HC50 at 1 h [4] was > 1280 µg/mL and the selectivity ratio [5] was > 1280. For the same compound, the CC50 at 24 h [6] was 19.1 µg/mL.
With `CO[C@@]1(NC(=O)C(C(=O)O)c2ccc(O)cc2)C(=O)N2C(C(=O)O)=C(CSc3nnnn3C)CO[C@@H]21` (stereo not given in full) [MOXALACTAM] the Activity (Escherichia coli [13]) was “Active”, the Activity (Escherichia coli [14]) was “Active” and the Activity (Escherichia coli [15]) was 1 10^4CFU/ml.
Compound `C[N+](C)(CCCCCOc1cc(OCCCCC[N+](C)(C)CCCCc2ccccc2)cc(OCCCCC[N+](C)(C)CCCCc2ccccc2)c1)CCCCc1ccccc1.[Br-].[Br-].[Br-]` has an MIC (Staphylococcus aureus [1]) of 1 µg/mL, an MIC (Enterococcus faecalis) of 2 µg/mL and an MIC (Escherichia coli [2]) of 2 µg/mL. For the same compound, the MIC [3] was 2 µg/mL, the HC50 at 1 h [4] was > 1280 µg/mL and the selectivity ratio [5] was > 1280. The CC50 at 24 h [6] was < 30 µg/mL.
For `C[C@H]1c2cccc(O)c2C(=O)C2=C(O)[C@]3(O)C(=O)C(C(N)=O)=C(O)[C@@H](N(C)C)[C@@H]3[C@@H](O)[C@@H]21` [DOXYCYCLINE ANHYDROUS], the MIC90 (Staphylococcus aureus [16]) was ≥ 16 µg/mL and the MIC90 (Staphylococcus aureus [17]) was > 32 µg/mL.
For `CO[C@H]1/C=C/O[C@@]2(C)Oc3c(C)c(O)c4c(O)c(c(/C=N/N5CCN(C)CC5)c(O)c4c3C2=O)NC(=O)/C(C)=C\C=C\[C@H](C)[C@H](O)[C@@H](C)[C@@H](O)[C@@H](C)[C@H](OC(C)=O)[C@@H]1C` [RIFAMPIN], the MIC90 (Staphylococcus aureus [17]) was > 32 µg/mL.
Work on `CCCCCCCC[N+](C)(C)CCCOc1cc(OCCC[N+](C)(C)CCCCCCCC)cc(OCCC[N+](C)(C)CCCCCCCC)c1.[Br-].[Br-].[Br-]` yielded an MIC (Staphylococcus aureus [1]) of 2 µg/mL, an MIC (Enterococcus faecalis) of 1 µg/mL and an MIC (Escherichia coli [2]) of 4 µg/mL. The MIC [3] was 4 µg/mL, the HC50 at 1 h [4] was > 1280 µg/mL and the selectivity ratio [5] was > 640. For the same compound, the CC50 at 24 h [6] was < 30 µg/mL.
